Laboratory results as given in US20090148540A1, “Antibacterial composition and method of production” (MI HOPE INCORPORATED, priority 2007, published 2009).

System: MRSA
Experiment: Anti-MRSA activity on dried surface areas swabbed with MRSA broth, surveyed with MRSA selective agar plates
Format: cell-based, Staphylococcus aureus
Settings: surface areas previously swabbed with MRSA broth; treated areas dried 30 minutes; MEC DD Checker Plates; copper citrate solution (22 volts, 2.8 amps, 2 hours) diluted 1 to 10 in water
Description: In one protocol, the diluted copper citrate solution was applied to several dried surface areas that had been previously swabbed with an MRSA containing broth solution. The treated areas were allowed to dry over the next 30 minutes. An MRSA selective agar medium was then used to survey the areas for residual MRSA (MEC DD Checker Plates obtained from Denka Seiken, Inc., Japan). For control, similarly contaminated areas were either left untreated or exposed to the original starting 5% citric acid solution.

Compound: O=C(O)CC(O)(CC(=O)O)C(=O)O [5% citric acid solution, citric acid]
- residual MRSA growth on MRSA selective agar medium from treated surface areas: numerous MRSA colonies developed
